Measured values reported in US6376502B1, “Osteoporosis compounds” (priority 1997, dated 2002).

Key:
[1] = system: Bone Morphogenetic Protein 7 (BMP-7) expression in wild type 293S cells; assay: Kidney regeneration assay: BMP-7 expression by Northern blot in wild type 293S cells; assay type: cell-based, human; conditions: parental 293S cell line, 10^-6M, RNA at 8, 16 and 24 hours
Protocol: (§1) 293S and EP2 293S cells are grown in Dulbecco's Modified Egale medium (DMEM, Gibco, BRL; Gaithersburg, Md.). […] Cells are harvested and RNA is extracted at 8, 16 and 24 hours. Northern blot analysis of total ([…]) is carried out by probing the blots with ^32P-labeled BMP-7 probe. The blots are normalized for RNA loading by hybridization with ^32P-labeled 18s ribosomal RNA probe. […] Given the known role of BMP-7 in kidney regeneration and the ability of an prostaglandin agonist to induce BMP-7 expression in 293S kidney cells in a time and receptor specific manner indicates a role for prostaglandin agonist in kidney regeneration.

[2] = system: Bone Morphogenetic Protein 7 (BMP-7) expression in 293S cells transfected with EP2; assay: Kidney regeneration assay: BMP-7 expression by Northern blot in EP2 293S cells; assay type: cell-based, human; conditions: 10^-6M, RNA at 8, 16 and 24 hours, time dependent
Protocol: as §1

## CCCCC[C@H](O)/C=C/[C@H]1[C@H](O)CC(=O)[C@@H]1C/C=C\CCCC(=O)O [PGE2, Prostaglandin E2]
[1]
  induction of BMP-7 expression: generally not observed
[2]
  induction of BMP-7 expression: induce the expression of BMP-7
